Assays:
[1] = Sequential binding test on biotin-derivatized sensor tip; conditions: 50 μg/ml in PBS, 9 minutes; FIG. 6
Text: The two-layer configuration on the tip of an optic fiber is used for this test. The thickness of the first Ta2O5 layer is 25 nm and the thickness of the second SiO2 layer is 770 nm. The fiber was purchased from Ocean Optics (Dunedin, Fla.). It was manually cut into segments that are 40 mm long. Both ends of these segments were polished to standard mirror surface quality. The polishing method used here was exactly the same as those for optical lenses and mirrors. One surface of these fiber segments was outsourced to an optical coating house for Ta2O5 layer and SiO2 layer. This vendor employed an ion-beam assisted physical vapor deposition (IAPVD) coater made by […] is a commonly used coating technique for anti-reflection and optical filters. The experimental steps included the following (all steps are performed at room temperature unless otherwise noted): The fiber tip was coated with a polymer monolayer derivatized with biotin. The polymer monolayer was prepared using a biotinylated lipid (custom). This lipid was using to form a lipid monolayer on the surface of water solution. The monolayer was cross linked using UV light for 15minutes. Clean, dry fibers were then brought in contact with the floating thin film and the biotin polymer was adsorbed onto the fiber tip. The fibers were then dryed at 60° C. for 1 hour. […]

anti-Lewis Y antibody = experiment: Negative control: binding to immobilized irrelevant antibody; conditions: 200 μg/mL biotin
Procedure: Another negative control was carried out using an irrelevant antibody (anti-Lewis Y antibody from Calbiochem, San Diego Calif.; cat #434636) immobilized in an identical fashion to the anti-biotin antibody above. This immobilized antibody was exposed to a solution of 200 μg/mL biotin.

[2] = system: mouse anti-biotin antibody; experiment: Small molecule binding to immobilized anti-biotin antibody on NHS-ester activated tip; conditions: biotin 200 μg/mL, sucrose 2 mg/mL in PBS; FIG. 10
Procedure: This example illustrates the binding of a low molecular weight molecule binding to an immobilized high molecular weight molecule. […] The tip was rinsed with PBS for 2 minutes. Following the PBS rinse, the tip was quenched with an aqueous solution of 100 μM ethanolamine pH 8.5 (Sigma-Aldrich Chemical Company, St Louis, Mo.; cat #E9508) for 5 minutes and then was rinsed again in PBS for 2 minutes.
Controls using a solution of sucrose (Sigma-Aldrich Chemical Company, St Louis, Mo.; cat #S8501) (2 mg/mL) and PBS were carried out on the second and the third fibers to determine baseline noise.

Row | binding to immobilized biotin (7th order valley phase shift) [1] | Compound | binding to irrelevant antibody (anti-Lewis Y antibody) | change in optical thickness on exposure (binding) [2]
1 | binding | streptavidin: streptavidin (Pierce Biotechnology, cat #21122) |  | 
2 |  | O=C(O)CCCC[C@@H]1SC[C@@H]2NC(=O)N[C@@H]21 [biotin] | lack of biotin binding | increase in optical thickness
3 |  | OC[C@H]1O[C@@](CO)(O[C@H]2O[C@H](CO)[C@@H](O)[C@H](O)[C@H]2O)[C@@H](O)[C@@H]1O [sucrose] |  | no detectable increase over baseline
